The values that follow come from ChEMBL document CHEMBL1129895, “A novel series of matrix metalloproteinase inhibitors for the treatment of inflammatory disorders” (Bioorg Med Chem Lett, 1997).

Molecules are shown by their SMILES. Square brackets hold non-standard residues; d marks the D form. Peptide text beside a SMILES is read from it. * marks the point of attachment. Propionyl = CCC(=O)*; Mpa = O=C(O)CCS

The target of one test is Neutrophil collagenase (Rattus norvegicus, UniProt O88766). The test is described as follows: Compound was tested for its inhibitory activity against Matrix metalloprotease-8 (MMP-8) in adjuvant arthritic rat model of rheumatoid arthritis.
Neutrophil collagenase, sequence (O88766 whole entry): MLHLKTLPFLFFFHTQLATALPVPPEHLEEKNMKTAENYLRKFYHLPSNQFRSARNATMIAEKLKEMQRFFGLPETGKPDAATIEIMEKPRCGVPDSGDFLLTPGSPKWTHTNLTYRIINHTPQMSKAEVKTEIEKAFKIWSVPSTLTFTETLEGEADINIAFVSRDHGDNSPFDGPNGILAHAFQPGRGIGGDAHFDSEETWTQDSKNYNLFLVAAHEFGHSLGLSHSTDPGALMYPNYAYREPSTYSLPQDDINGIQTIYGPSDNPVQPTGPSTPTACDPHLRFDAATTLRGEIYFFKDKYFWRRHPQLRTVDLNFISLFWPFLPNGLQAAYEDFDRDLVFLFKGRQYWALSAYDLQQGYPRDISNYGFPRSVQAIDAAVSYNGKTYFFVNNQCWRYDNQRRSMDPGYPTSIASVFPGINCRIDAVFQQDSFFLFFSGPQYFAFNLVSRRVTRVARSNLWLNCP
The target of test [1] is T1, Matrix metalloproteinase-9 (Rattus norvegicus, UniProt P50282). Nature of the test: Compound was tested for its inhibitory activity against Matrix metalloprotease-9 (MMP-9) in adjuvant arthritic rat model of rheumatoid arthritis.
T1 sequence (P50282 whole entry): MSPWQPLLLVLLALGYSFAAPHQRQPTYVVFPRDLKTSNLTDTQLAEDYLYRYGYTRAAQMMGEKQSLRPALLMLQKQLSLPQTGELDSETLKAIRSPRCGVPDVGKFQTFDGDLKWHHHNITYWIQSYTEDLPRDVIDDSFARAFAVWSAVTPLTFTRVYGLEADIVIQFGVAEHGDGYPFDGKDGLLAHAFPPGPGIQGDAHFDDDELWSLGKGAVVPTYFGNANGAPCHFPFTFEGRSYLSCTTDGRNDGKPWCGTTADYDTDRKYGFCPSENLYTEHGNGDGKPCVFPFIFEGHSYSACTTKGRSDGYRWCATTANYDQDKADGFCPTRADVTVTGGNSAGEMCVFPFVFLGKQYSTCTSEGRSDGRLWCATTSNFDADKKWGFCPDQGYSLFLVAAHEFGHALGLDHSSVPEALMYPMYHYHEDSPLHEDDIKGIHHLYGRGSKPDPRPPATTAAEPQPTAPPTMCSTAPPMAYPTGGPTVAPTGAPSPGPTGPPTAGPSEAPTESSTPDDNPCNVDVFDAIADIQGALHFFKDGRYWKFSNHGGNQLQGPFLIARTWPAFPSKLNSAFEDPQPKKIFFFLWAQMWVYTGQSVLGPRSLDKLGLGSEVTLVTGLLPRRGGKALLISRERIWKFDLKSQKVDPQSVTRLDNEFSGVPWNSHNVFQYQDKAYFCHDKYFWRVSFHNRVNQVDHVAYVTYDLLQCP
For test [2], the target named is T1, Matrix metalloproteinase-9. The test is described as follows: Compound was tested for its inhibitory activity against Matrix metalloprotease-9 in adjuvant arthritic rat model of rheumatoid arthritis.
The next test deals with Rattus norvegicus. Nature of the test: Inhibition of hind paw swelling was observed by the administration of compound at 40 mg/kg/day, perorally in adjuvant arthritic rat model of rheumatoid arthritis. Format: functional. As to conditions: route oral.

The IC50 is the midpoint of a concentration-inhibition curve. For orientation: inhibition in vivo means how much of the control response was suppressed.

In the case of `CNC(=O)[C@H](Cc1cscn1)NC(=O)[C@H](CC(C)C)NC(=O)CS`, the IC50 came out at 12 nM at Neutrophil collagenase and 7 nM in test [1].

Consider `CNC(=O)[C@H](Cc1ccccc1)NC(=O)[C@H](CSC)NC(=O)CS`, for which the values for the IC50 (in test [2]; on Neutrophil collagenase) were 13 nM and 6 nM, respectively.

With `CNC(=O)[C@H](Cc1ccccc1)NC(=O)[C@H](C[S+](C)[O-])NC(=O)CS` (stereo partly specified), the IC50 worked out at 350 nM in test [2] and 480 nM at Neutrophil collagenase.

As to `CNC(=O)[C@H](Cc1ccccc1)NC(=O)[C@@H](NC(=O)CS)C(C)O` (stereo partly specified), the values for the 50% inhibitory concentration (IC50) (in test [2]; at Neutrophil collagenase) were 1700 nM and 4100 nM, respectively.

For the compound `CNC(=O)[C@H](Cc1ccccc1)NC(=O)[C@H](CC(C)C)NC(=O)CS`, the IC50 is 90 nM in test [2] and 50 nM on Neutrophil collagenase. Also, in the test with Rattus norvegicus, the inhibition in vivo at 40 mg/kg/day was determined as 40%.

In the case of `CNC(=O)[C@H](Cc1ccccc1)NC(=O)[C@H](CC(C)C)NC(=O)CSC`, the IC50 in test [2] turned out to be 4600 nM; on Neutrophil collagenase it was 2600 nM.

For the compound `CNC(=O)[C@H](Cc1c[nH]c2ccccc12)NC(=O)[C@H](CSC)NC(=O)CS`, the IC50 on Neutrophil collagenase amounted to 20 nM; in test [1], 120 nM.

With `CNC(=O)[C@H](Cc1c[nH]c2ccccc12)NC(=O)[C@H](CC(C)C)NC(=O)CS`, the half-inhibitory concentration (IC50) was 80 nM at Neutrophil collagenase and 30 nM in test [1].

Consider `CCC(=O)N[C@@H](CC(C)C)C(=O)N[C@@H](Cc1ccccc1)C(=O)NC` (Propionyl-Leu-Phe-NHMe), for which the figures for the IC50 (in test [2]; at Neutrophil collagenase) were 30000 nM and above 100000 nM, respectively.

As for `CNC(=O)[C@H](Cc1ccccc1)NC(=O)[C@H](CC(C)C)NC(=O)CCS` ([Mpa]-Leu-Phe-NHMe), the 50% inhibitory concentration (IC50) in test [2] came out at 9600 nM; on Neutrophil collagenase, 5100 nM.
